The results in this text go back to patent US10368545B2, “Substituted 2-thioimidazolylcarboxamides as pesticides” (BAYER CROPSCIENCE AKTIENGESELLSCHAFT, priority 2015, dated 2019).

Data set [1] has as its system green peach aphid (Myzus persicae). The experiment in a line: Contrasting example: Myzus persicae spray test (MYZUPE). The note with it: MYZUPE, 100 g ai/ha. Type of data set: in vivo. The protocol:
Myzus persicae—Spray Test (MYZUPE)
Solvents: 78.0 parts by weight of acetone • • 1.5 parts by weight of dimethylformamide
(§1) Emulsifier: alkylaryl polyglycol ether
(§2) To produce a suitable active compound preparation, 1 part by weight of active compound is dissolved using the stated parts by weight of solvent and made up with water containing an emulsifier concentration of 1000 ppm until the desired concentration is attained. To produce further test concentrations, the preparation is diluted with emulsifier-containing water.
Discs of Chinese cabbage leaves (Brassica pekinensis), infested by all stages of the green peach aphid (Myzus persicae) are sprayed with an active compound preparation of the desired concentration.
After the desired period of time, the efficacy in % is determined. 100% means that all aphids were killed; 0% means that no aphids were killed.

Data set [2] has the same test system. Put plainly: Myzus persicae spray test (Chinese cabbage leaf discs). Conditions: application rate 500 g/ha, after 5 or 6 days, Chinese cabbage leaf discs. Type of data set: in vivo. The method, then:
Myzus persicae—Spray Test
Solvent: 78 parts by weight of acetone • • 1.5 parts by weight of dimethylformamide
as §1, §2
Discs of Chinese cabbage leaves (Brassica pekinensis) infested by all stages of the green peach aphid (Myzus persicae) are sprayed with an active compound preparation of the desired concentration.
After 5 or 6 days, the efficacy in % is determined. 100% means that all the aphids were killed; 0% means that no aphids were killed.

Data set [3] is described as follows: log P by HPLC on reversed-phase C18 columns (OECD Guideline 117). Conditions: for logP[a]: method [a]; for logP[b]: method [b]; for chromatographic logP: reversed-phase C18 HPLC column. The data set is classed as physicochemical. The method, then: The log P values were determined in accordance with OECD Guideline 117 (EC Directive 92/69/EEC) by HPLC (high-performance liquid chromatography) using reversed-phase (RP) columns (C18), by the following methods:
[a] The LC-MS determination in the acidic range was carried out at pH 2.7 with 0.1% aqueous formic acid and acetonitrile (contains 0.1% formic acid) as mobile phases; linear gradient from 10% acetonitrile to 95% acetonitrile.
[b] LC-MS determination in the neutral range was carried out at pH 7.8 with 0.001 molar aqueous ammonium hydrogencarbonate solution and acetonitrile as mobile phases; linear gradient from 10% acetonitrile to 95% acetonitrile.

The structures appear in SMILES notation. Read-outs that look alike come from different tables or passages of the source.

With `CN(C(=O)c1cnc(SCC(F)(F)C(F)(F)Cl)n1C)c1cccnc1` [I-A-46], the “% efficacy” value in data set [1] (5 dat) was determined as 90%. The “efficacy (aphids killed)” value in data set [2] is 100%. In data set [3], the “logP[a]” value is 2.09 and the “logP[b]” value was 2.17.
Taken in the same sequence, the figures for `CN(C(=O)c1cnc(SCCC(F)(F)F)n1C)c1cccnc1` [I-A-47] were 90%, 100%, 1.65 and 1.84.
Taken in the same sequence, the figures for `CN(C(=O)c1cnc(SCCCF)n1C)c1cccnc1` [I-A-48] were 90%, 100%, 1.11 and 1.40.
Taken in the same sequence, the figures for `CN(C(=O)c1cnc(SCC(F)(F)C(F)F)n1C)c1cccnc1` [I-A-49] were 90%, 100%, 1.55 and 1.71.
Regarding `CN(C(=O)c1cnc(SCCSCC(F)(F)F)n1C)c1cccnc1` [I-A-50], the “% efficacy” value in data set [1] (5 dat) is on record as 100%. Further, the “efficacy (aphids killed)” value in data set [2] came out at 100%. Moreover, in data set [3], the “logP[a]” value stood at 1.94 and the “logP[b]” value came out at 2.10.
Regarding `CN(C(=O)c1cnc(SC2CCSCC2)n1C)c1cccnc1` [I-A-51], the “% efficacy” value in data set [1] (5 dat) is on record as 100%. For the same molecule, the “efficacy (aphids killed)” value in data set [2] came out at 100%. In data set [3], the “logP[a]” value is given as 1.47 and the “logP[b]” value is 1.73.
With `CN(C(=O)c1cnc(SC2CCOCC2)n1C)c1cccnc1` [I-A-52], in data set [1] (5 dat), the “% efficacy” value was 100%. Further, the “efficacy (aphids killed)” value in data set [2] is reported as 100%. In data set [3], the “logP[a]” value is 0.90 and the “logP[b]” value was 1.25.
With `CC(C)CCSc1ncc(C(=O)N(C)c2cccnc2)n1C` [I-A-53], the “% efficacy” value in data set [1] (5 dat) is recorded as 100%. The “efficacy (aphids killed)” value in data set [2] came out at 100%. Besides, in data set [3], the “logP[a]” value is given as 2.68 and the “logP[b]” value is listed as 2.76.
As for `CN(C(=O)c1cnc(SC2COC2)n1C)c1cccnc1` [I-A-54], in data set [1] (5 dat), the “% efficacy” value is given as 90%. In addition, the “efficacy (aphids killed)” value in data set [2] amounted to 100%. In data set [3], the “logP[a]” value stood at 0.63 and the “logP[b]” value worked out at 0.98.
As to `COc1ccc(Sc2ncc(C(=O)N(C)c3cccnc3)n2C)cc1` [I-A-58], in data set [1] (6 dat), the “% efficacy” value was determined as 70%. Also, the “efficacy (aphids killed)” value in data set [2] was 90%. Besides, in data set [3], the “logP[a]” value was found to be 1.62 and the “logP[b]” value is listed as 1.79.
Taken in the same sequence, the figures for `CN(C)c1ccc(Sc2ncc(C(=O)N(C)c3cccnc3)n2C)cc1` [I-A-59] were 90%, 90%, 1.55 and 2.11.
The like results for `CN(C(=O)c1cnc(Sc2cc(Cl)ccc2Cl)n1C)c1cccnc1` [I-A-60] were, in that order, 70%, 90%, 2.55 and 2.58.
`CN(C(=O)c1cnc(Sc2ccc(F)cc2)n1C)c1cccnc1` [I-A-62]: the pest or weed control at 100 g/ha in data set [1] (Myzus persicae, 144 h, 6 dat, read-out: % efficacy) was found to be 70%. Further, in data set [2] (Myzus persicae, foliar, read-out: efficacy (aphids killed)), the pest or weed control at 500 g/ha was 90%. In addition, the chromatographic logP in data set [3] (pH 2.7, method [a], read-out: logP[a]) was 1.66; in data set [3] (pH 7.8, method [b], read-out: logP[b]), 1.87.
Take `CN(C(=O)c1cnc(Sc2ccc(Cl)c(C(F)(F)F)c2)n1C)c1cccnc1` [I-A-64]: in data set [1] (6 dat), the “% efficacy” value stood at 70%. Also, the “efficacy (aphids killed)” value in data set [2] is 90%. In data set [3], the “logP[a]” value is given as 2.63 and the “logP[b]” value was found to be 2.71.
The like results for `CN(C(=O)c1cnc(Sc2ccccn2)n1C)c1cccnc1` [I-A-65] were, in that order, 100%, 100%, 1.01 and 1.18.
Taken in the same sequence, the figures for `CN(C(=O)c1cnc(Sc2ccccc2S(=O)(=O)N(C)C)n1C)c1cccnc1` [I-A-69] were 70%, 100%, 1.56 and 1.63.
